{"source": "patent US20120114639A1", "about": "“COMPOSITIONS AND METHODS FOR INHIBITING VIRAL AND/OR BACTERIAL INFECTIONS” (priority 2010, published 2012)", "key": {"[1]": {"system": "HPV16", "experiment": "HPV16 PsV infection of HaCaT cells, luciferase assay", "assay_type": "cell-based, human papillomavirus", "conditions": "for block of HPV16 infection / reduction of infectivity: HaCaT in CM, 24 hours in presence of inhibitor, 1 μM AG1478, 100 nM PD168393, 100 μM genistein, 1 μM PD173074, 100-600 nM cetuximab, 100 vge/cell; for restoration of HPV16 infectivity in SFM by added factor: serum-starved HaCaT, HPV16 bound in SFM, 24 hours in SFM plus factor, compared to CM; for visible toxicity in dose-response analysis: HaCaT cells, dose-response of infection inhibition; for pIC50: Human papillomavirus 16, HaCaT, read-out: IC50 of HPV16 infection inhibition", "method": "FIG. 2. […] (A, B) Immunoblot for syndecan-1 (polyclonal syndecan-1 Ab) after 24 hours at 37° C. in CM (A) or post starvation in SFM and after six hours at 37° C. in Tyrode's Buffer (B); immunoblot for HPV16 L1 released into CM post virus binding for indicated times (C) or 24 hours (E). […] Cells were untreated (U) or pre-treated with BM or MM for one hour, then exposed to HPV16 PsV in the presence of inhibitors in CM. Infection was assayed by quantifying luciferase levels at 24 hours p.i. (F). Data are represented as mean±SEM of three experiments. (G-H) IC50 of HPV16 infectivity inhibition by MMIP inhibitors batimastat and mariniastat. HaCaT cells incubated with serial dilutions of batimastat or marimastat in CM, for one hour before incubation with 100 viral genome equivalents (vge)/cell HPV16, one hour at 4° C. After washing away unbound virus, cells were incubated for 24 hours at 37° C. in the presence of inhibitors. HPV16 infection was measured with luciferase assay. Data are represented as mean±SEM of 3 experiments.\n(§1) FIG. 7. […] (A) Relative HPV16 infection of HaCaT cells in the presence of specific GFR and protein tyrosine kinase inhibitors. […] Cells were exposed to HPV16 PsV at 100 vge/cell for one hour at 4° C., then washed extensively and shifted to 37° C. in the presence of the indicated inhibitor in CM for 24 hours at which time they were analyzed for luciferase expression. Data are represented as mean±SEM of three experiments. (B-C) EGFR knockdown was accomplished using siRNA to EGFR and the percent of EGFR protein remaining in EGFR-siRNA transfected HaCaT cells was determined by immunoblot and compared by densitometry to EGFR levels in cells transfected with a negative control siRNA at 48 hours post transfection. Four separate transfections were analyzed (B) and HPV16 PsV infection levels were measured at 24 hours post infection (48 hours post transfection) in each (C). Error bars represent the average of triplicate luciferase readings from the four transfections. (D) Cells were pre-treated four hours with 100 μm monastrol, pre-treated with monastrol for four hours plus PD168393 for duration, or pre-treated with PD168393 for four hours plus monastrol for duration. […] HaCaT cells starved in SFM (four hours) were exposed to HPV16 in CM (positive control) or SFM. After washing away unbound virus, cells were incubated for 24 hours in CM, Ty (Tyrode's buffer containing 0.05% BSA), SFM, syndecan-1 depleted CM (IP-syd), or EGF-depleted CM (IP-EGF). Infection was quantified by luciferase assay 24 hours post shift to 37° C. Data are represented as mean SEM of three experiments. […] HaCaT cells starved in SFM were exposed to HPV16 in SFM for one hour at 4° C. After washing away unbound virus, cells were incubated for 24 hours in. SFM, SFM containing GF, or in CM. Infections were quantified by luciferase assay; bars represented the mean SEM of three individual experiments. (G). To investigate if infection inhibition by the various agents used in FIG. 7A,D,E could be attributed to cell cycle changes, we used identical conditions and timing of inhibitor treatment on HaCaT cells. We then stained with propidium iodide and examined the cell cycle using flow cytometry. The fractions of cells in G1 (1n), S (intermediate), and G2/M (2n) phases were expressed as percentages of the total."}, "[2]": {"system": "p-EGFR, p-KGFR and downstream effector p-ERK1/2", "experiment": "EGFR and KGFR signal activation, phospho-protein immunoblot in serum-starved HaCaT cells", "assay_type": "cell-based, human", "conditions": "10 minutes ligand exposure; 100 nM PD168393, 1 μM PD173074, 100 μM genistein, 100 μM daidzein, 600 nM cetuximab", "method": "FIG. 6. […] (A-B) Immunoblot of p-EGFR, p-KGFR and downstream effector p-ERK1/2 following 10 minutes ligand exposure (listed at the left of each blot: EGF, KGF, HPV16 PsV; lane 2) in serum-starved HaCaT cells. Mock exposed cells were negative controls (lane 1); ligand controls included 10 ng/ml EGF and 10 ng/ml KGF exposure (10 minutes). […] Actin is detected as a loading control. (C-D) Immunoblot of nuclear cell fractions and confocal microscopy localization of p-ERK1/2 following EGF and HPV16 exposure in serum-starved HaCaT cells at indicated times post-exposure. (C) Immunoblot for p-ERK1/2 in nuclear fractions from exposed cells. (D) Immunofluorescent confocal microscopy for localization of p-ERK1/2 (red) in PsV exposed cells. DAPI was used as a nuclear marker and was pseudocolored green to facilitate efficient co-localization of p-ERK1/2 in the nucleus. Parameters of lasers intensities were kept constant during the imaging.\nSubconfluent HaCaT cells were serum-starved for 3-4 hours in Tyrode's buffer containing 0.05% BSA. After adding ˜100 vge/cell HPV16 PsV, 10 ng/ml EGF or 10 ng/ml KFG, cells were incubated at 37° C. for 10 minutes before transferring to ice and solubilizing cells with RIPA buffer. In some experiments cells were incubated with various inhibitors in Tyrode's buffer for 45 minutes and after Tyrode's washes, were incubated with virus as above in the presence of inhibitors. Lysates were clarified, mixed with Laemmli buffer and boiled for five minutes prior to SDS-PAGE Tmmunoblot was performed with various monoclonal and polyclonal antibodies: p-EGFR, p-KGFR (p-FGFR2b), p-ERK, actin. Nuclear fractionation was performed for detection of p-ERK movement into the nucleus. HaCaT cells were starved 4 h in Tyrode's solution containing 0.05% BSA, then exposed to HPV or EGF for various times. Cells were solubilized with NP40 lysis buffer and centrifuged. The pellet was incubated with nuclear extraction buffer. Following incubation on ice for one hour, the extract was clarified and the supernatant subjected to SDS-PAGE and immunoblot for analysis of p-ERK content."}, "[3]": {"system": "HaCaT cells", "experiment": "Cell cycle analysis by propidium iodide flow cytometry", "assay_type": "cell-based, human", "conditions": "HaCaT cells in CM infected with HPV16, same inhibitor conditions as infection assays", "method": "as §1, with “To investigate if infection inhibition by the various agents used in FIG. 7A,D,E could be attributed to cell cycle changes, we used identical conditions and timing of inhibitor treatment on HaCaT cells. We then stained with propidium iodide and examined the cell cycle using flow cytometry.” left out"}, "[4]": {"system": "HPV16", "experiment": "HPV16 release from HaCaT cells into media, L1 immunoblot", "assay_type": "cell-based, human papillomavirus", "conditions": "CM, MMP inhibitor, FIG. 2E", "method": "FIG. 2. HPV16 and syndecan-1 release from the HaCaT cell plasma membrane is MMP dependent. (A, B) Immunoblot for syndecan-1 (polyclonal syndecan-1 Ab) after 24 hours at 37° C. in CM (A) or post starvation in SFM and after six hours at 37° C. in Tyrode's Buffer (B); immunoblot for HPV16 L1 released into CM post virus binding for indicated times (C) or 24 hours (E). (D) Gelatin zymography showing protease activity present in HaCaT cell CM alone or with binding of HPV16. (E-F) Effect of MMP inhibitors batimistat (BM) or marimastat (MM) at the indicated concentrations on HPV16 release into media as in panel C and densitometric quantification with AlphaEaseFC software (E) and relative infection levels (F). Cells were untreated (U) or pre-treated with BM or MM for one hour, then exposed to HPV16 PsV in the presence of inhibitors in CM. Infection was assayed by quantifying luciferase levels at 24 hours p.i. (F). Data are represented as mean±SEM of three experiments. […] HPV16 infection was measured with luciferase assay. […]\nHaCaT cells were incubated with 200 vge/cell of HPV PsVs for 1 h at 4° C., washed three ties with media and incubated at 37° C. for various times before harvesting the experimental media. […] The eluted fractions were analyzed by SDS-PAGE followed by immunoblotting for HPV16 L1, proteoglycans and growth factors. […]"}}, "note": "pIC50: −log10 of the molar value.", "data": [{"compound": "O=c1c(-c2ccc(O)cc2)coc2cc(O)cc(O)c12", "note": "[genistein]", "values": [{"measurement": "block of HPV16 infection / reduction of infectivity", "setting": "[1]", "value": "almost completely blocked infection"}, {"measurement": "rapid phosphorylation of the target GFR and downstream p-ERK1/2 induced by GFs or HPV16", "setting": "[2]", "value": "diminished"}]}, {"compound": "C=CC(=O)Nc1ccc2ncnc(Nc3cccc(Br)c3)c2c1", "note": "[PD168393]", "values": [{"measurement": "infection inhibition when PD168393 treatment was added with monastrol", "setting": "[1]; HaCaT, 100 μM monastrol plus PD168393, FIG. 7D", "value": "≈ 70%"}, {"measurement": "rapid phosphorylation of the target GFR and downstream p-ERK1/2 induced by GFs or HPV16", "setting": "[2]", "value": "diminished"}, {"measurement": "cell cycle distribution (G1, S, G2/M) versus no treatment", "setting": "[3]", "value": "relatively similar"}]}, {"compound": "COc1cc2ncnc(Nc3cccc(Cl)c3)c2cc1OC", "note": "[AG1478]", "values": [{"measurement": "rapid phosphorylation of the target GFR and downstream p-ERK1/2 induced by GFs or HPV16", "setting": "[2]", "value": "completely abrogating signaling"}]}, {"compound": "O=c1c(-c2ccc(O)cc2)coc2cc(O)ccc12", "note": "[daidzein]", "values": [{"measurement": "rapid phosphorylation of the target GFR and downstream p-ERK1/2 induced by GFs or HPV16", "setting": "[2]", "value": "no inhibitory effect"}]}, {"compound": "albumin", "values": [{"measurement": "restoration of HPV16 infectivity in SFM by added factor", "setting": "[1]", "value": "did not enhance infectivity"}]}, {"compound": "CNC(=O)[C@@H](NC(=O)[C@H](CC(C)C)[C@H](O)C(=O)NO)C(C)(C)C", "note": "[marimastat]", "values": [{"measurement": "HPV16 infection of HaCaT cells (in words)", "setting": "[1]; CM, luciferase 24 hours p.i.", "value": "efficiently reduced HPV16 infection"}, {"measurement": "infection inhibition under cell cycle assay conditions", "setting": "[1]; HaCaT cells grown in CM and infected with HPV16", "value": "~90", "unit": "%"}, {"measurement": "visible toxicity in dose-response analysis", "setting": "[1]", "value": "absence of visible toxicity"}, {"measurement": "pIC50", "setting": "[1]", "value": 6.00}, {"measurement": "release of HPV16 from cells", "setting": "[4]", "value": "effectively prevented the release"}, {"measurement": "cell cycle distribution (G1, S, G2/M) versus no treatment", "setting": "[3]", "value": "relatively similar"}]}, {"compound": "CNC(=O)[C@H](Cc1ccccc1)NC(=O)[C@H](CC(C)C)[C@H](CSc1cccs1)C(=O)NO", "note": "[batimastat]", "values": [{"measurement": "visible toxicity in dose-response analysis", "setting": "[1]", "value": "absence of visible toxicity"}, {"measurement": "pIC50", "setting": "[1]", "value": 6.40}]}, {"compound": "EGF: epidermal growth factor", "values": [{"measurement": "restoration of HPV16 infectivity in SFM by added factor", "setting": "[1]", "value": "fully restore infection levels"}]}, {"compound": "CCN(CC)CCCCNc1ncc2cc(-c3cc(OC)cc(OC)c3)c(NC(=O)NC(C)(C)C)nc2n1", "note": "[PD173074]", "values": [{"measurement": "block of HPV16 infection / reduction of infectivity", "setting": "[1]", "value": 35, "unit": "%"}, {"measurement": "cell cycle distribution (G1, S, G2/M) versus no treatment", "setting": "[3]", "value": "relatively similar"}]}]}
